# From patent publication US20030153544A1, “Fatty acid derivatives” (priority 1997, published 2003)
# How the values were obtained:
# [1] = drug toxicity LD50 in tumour-bearing mice, single intraperitoneal dose; format: in vivo, BALB/C female mice; settings: for LD50 at 10 days: female, BALB/C, mouse, in vivo, ip, read-out: Mother compound LD50
# Procedure: (§1) Murine solid ADJ/PC6 plasmacytoma and its subline selected for resistance to cisplatin and other alkylating agents was implanted subcutaneously as 1 mm^3 tumour fragments into BALB/C female mice weighing 20-25 grams. Melphalan or melphalan-elaidic amide, or chlorambucil or chlorambucil-oleylester, were administered by intraperitoneal, single dose 20 days post subcutaneous tumour implantation. Tumours were dissected on day 30, and weights of control and treated groups were compared. Activity was based on the measurement of drug toxicity, LD50 in mg/kg compared to anti-tumour effect measured as ED90, the dose in mg/kg required to reduce tumour mass by 90% compared to controls.
# [2] = tested on: cisplatin-resistant subline of ADJ/PC6 plasmacytoma; assay: antitumour effect in vivo, cisplatin-resistant subline of ADJ/PC6 plasmacytoma; design: species or system murine
# Procedure: as §1
# [3] = tested on: COR-L23/P and its resistant cell line COR-L23/R; format: cell-based, human; settings: for cellular accumulation (concentration) in COR-L23/R compared with COR-L23/P: drugs at 20 μM, FIG. 11; for fluorescence due to uptake in resistant and non-resistant cells: drug concentration 10 μM, FIG. 12
# Procedure: Cells were exposed in suspension at 2×10^5/ml to drugs at 20 μM. Aliquots were taken at various times and rinsed in ice cold PBS before being passed through the flow cytometre.
# Cells were exposed to Daunorubicine, Daunorubicine elaidic amide and Daunorubicine oleic carbamate, as described above. Drug concentration was reduced to 10 μM.
# [4] = tested on: rat peritoneal monocytes/macrophages; assay: effect on rat peritoneal monocytes/macrophages after intraperitoneal injection (cell counts, chemoluminescence on stimulation); format: in vivo; settings: for activity (chemoluminescence) of zymosan stimulated peritoneal cells: 6, 12, 25, 48 and 72 hours post treatment, FIG. 5
# [5] = tested on: endotoxin induced airway changes; assay: endotoxin (LPS) induced airway changes in rats, airway hyperresponsiveness model; format: in vivo, F344 rats
# Procedure: In a model of acute inflammatory airway changes in rats, the animals are exposed to aerosolized endotoxin (LPS). […] 10 male F344 rats were exposed to 100 μg/ml LPS for 30 minutes in a chamber. 12 and 4 hours prior to aerosol exposure the animals were treated with either prednisolone or the prednisolone derivative by instillation, 3 mg/kg. 90 minutes after the end of the aerosol exposure, the animals were prepared for assessment of airway responsiveness to 5-hydroxytryptamine and evaluation of airway inflammation. 5HT was added intravenously every 5 minutes until minimum 50% increase in lung resistance is observed, and the amount of 5 HT necessary to increase the lung resistance with 50%, PC50RL was calculated.
# [6] = tested on: NK65 strain drug sensitive P. berghei; assay: 4-day test in P. berghei infected mice; format: in vivo; settings: for ED50: Plasmodium berghei, ip, 96 h, 50% reduction in parasites in blood, read-out: ED50 value (SE); for ED50 / ED90 value / ED99 value: i.p. for 4 days, elaidate values × 433/600; for ED90 value: 90% reduction in parasites in blood; for ED99 value: 99% reduction in parasites in blood
# Procedure: A 4-day test in NK65 strain drug sensitive P. berghei was carried out in Swiss albino female mice with doses of 0.063, 0.25, 1.0 and 4 mg/kg hydroxychloroquine-elaidate and 0.094, […], 1.5 and 6 mg/kg hydroxychloroquine given intraperitoneally for 4 days to groups of 3 mice per group. The parasite inoculum of 10^7 infected cells was given intravenously on day 0 and follwoed by the drug dose for that day. The animals were dosed for the 3 following days and on the 5th day tail blood films were prepared for parasitaemia estimation. […] These findings could be of great importance in the treatment of malaria in man.
# The effective doses giving 50%, 90% and 99% reduction in P. berghei malaria parasites in the blood of mice with either hydroxychloroquine sulphate or hydroxychloroquine-elaidate is shown in this table.
# [7] = tested on: granuloma induced cartilage degradation; settings: daily oral; for reduction of granuloma tissue dry weight versus liposome-treated control / reduction of fluid mass of the granulomas versus liposome-treated control / glycosaminoglycan content of implanted cartilage, less than liposome-treated control group / hydroxyproline content of implanted cartilage, less than liposome-treated control group: naproxen 30 mg/kg, derivatives 60 mg/kg; for reduction of granuloma tissue dry weight versus liposome-treated control / reduction of fluid mass of the granulomas versus liposome-treated control: liposomes; for reduction of granuloma tissue dry weight versus liposome-treated control: control 14.36 mg; for reduction of fluid mass of the granulomas versus liposome-treated control: control 62.69 mg; for glycosaminoglycan content of implanted cartilage, less than liposome-treated control group / hydroxyproline content of implanted cartilage, less than liposome-treated control group: implants 2 weeks
# Description: The in vivo model of granuloma induced cartilage degradation which was employed involves the implantation of sterile cotton-wrapped rat femoral head cartilage subcutaneously on the backs of mice. The cotton provokes a granulomatous response with a demonstrable T cell involvement which leads to loss of matrix compounds from the implanted cartilage. […] It involves chronic erosive disease with quantitative biochemical end points for determining the loss of cartilage matrix. Antiinflammatory activity can be judged from the wet and dry mass of the cotton granuloma, chondroprotective activity can be determined from glycosaminoglycan and hydroxyproline content (indicative of proteoglycan and collagen respectively) of the implanted cartilage.
# Groups of female (n=10) TO mice (21±4 g) received a subcutaneous implant of cotton-wrapped rat femoral head cartilage. At 2 weeks the implants were removed. The cotton provoked a granulomatous response with concomitant release of proteoglycan from the implanted cartilage. The effects of daily oral administration of equimolar amounts of naproxen (30 mg/kg) and naproxen derivatives (60 mg/kg) on granuloma development and cartilage proteoglycan content were assessed. The compounds were formulated as liposomes with empty liposomes acting as vehicle control.
# A 15 mg/ml liposomal formulation is prepared by the 1:1 (w/w) mixing of the specific lipid derivatives (in DMSO) and lecithin (in ethanol) in a glycerol/sterile water buffer with subsequent dialysis to remove the solvents. A 7.5 mg/ml liposomal formulation of the underivatised NSAID compounds is prepared by the addition of the specific compound to empty liposomes in glycerol/sterile water.
# Results were analysed with INSTAT using Mann-Whitney and with p values corrected for ties. Values of p<0.05 were taken as significant.
# ADJ/PC6 plasmacytoma = assay: antitumour effect in vivo, murine subcutaneous ADJ/PC6 plasmacytoma (sensitive); settings: i.p. single dose day 20, tumours weighed day 30
# Procedure: as §1
# [8] = tested on: H69/LX4, human small lung cell line, overexpressing PgP
# Description: An MTT assay was used to determine the toxicity of compounds. The cells were exposed to the compounds for 6 days prior to assaying. The cell line used was H69/LX4, human small lung cell line, overexpressing PgP.
# [9] = i.p. single dose day 20, tumours weighed day 30
compound,measurement,setting,value
"N[C@@H](Cc1ccc(N(CCCl)CCCl)cc1)C(=O)O [Melphalan, L-3-[p-[bis(2-chlorethyl)amino]-phenyl]alanine, reference compound]",LD50 at 10 days,[1],23 mg/kg
same,"ED90, dose required to reduce tumour mass by 90% compared to controls",[2]; [9],no activity
"CCCCCCCC/C=C\CCCCCCCCOC(=O)N[C@H]1C[C@H](O[C@H]2C[C@](O)(C(=O)CO)Cc3c(O)c4c(c(O)c32)C(=O)c2c(OC)cccc2C4=O)O[C@@H](C)[C@H]1O (relative stereo) [Doxorubicine-oleyl-carbamate, N-(cis-9-octadecen-1-oxycarbonyl)doxorubicin]",cellular accumulation (concentration) in COR-L23/R compared with COR-L23/P,[3],approximately the same
"CCCCCCCCC=CCCCCCCCCOC(=O)NC1CC(OC2CC(O)(C(C)=O)Cc3c(O)c4c(c(O)c32)C(=O)c2c(OC)cccc2C4=O)OC(C)C1O (stereo not drawn) [Daunorubicine oleic carbamate, N-(cis-9-octadecen-1-oxycarbonyl)daunorubicin]",fluorescence due to uptake in resistant and non-resistant cells,[3],more or less equal in the two cell types
"C[C@]12C=CC(=O)C=C1CC[C@@H]1[C@@H]2[C@@H](O)C[C@@]2(C)[C@H]1CC[C@]2(O)C(=O)CO [prednisolone, 11β, 17α, 21-trihydroxypregna-1,4-diene-3,20-dione, reference compound]",activity (chemoluminescence) of zymosan stimulated peritoneal cells,[4]; i.p. 4 ml at 10 mg/ml,slight reduction of the chemoluminescence at 6 hours
same,number of macrophages in peritoneal lavage,"[4]; i.p. 4 ml at 10 mg/ml, 6-72 hours, FIG. 8, FIG. 9","much less pronounced, and only seen at 6 and 12 hours"
same,number of inflammatory cells in the bronchoalveolar fluid,"[5]; instillation 3 mg/kg, 12 and 4 hours prior to LPS aerosol",Neither prednisolone nor the derivative did influence
"CCN(CCO)CCCC(C)Nc1ccnc2cc(Cl)ccc12 (stereo not shown) [Hydroxychloroquine sulphate, 7-chloro-4-[4-[ethyl(2-hydroxyethyl)amino]1-methylbutylamino]quinoline, reference compound]",ED50,[6],1.74 mg/kg
same,ED90 value,[6],2.75 mg/kg
same,ED99 value,[6],4.52 mg/kg
"O=C(O)CCCc1ccc(N(CCCl)CCCl)cc1 [Chlorambucil, 4-[p-[bis(2-chlorethyl)amino]-phenyl]butyric acid, reference compound]",LD50 at 10 days,[1],57 mg/kg
"COc1cccc2c1C(=O)c1c(O)c3c(c(O)c1C2=O)C[C@@](O)(C(=O)CO)C[C@@H]3O[C@H]1C[C@H](N)[C@H](O)[C@H](C)O1 [Doxorubicine, reference compound]",cellular accumulation (concentration) in COR-L23/R compared with COR-L23/P,[3],much lower in the resistant cell line
"CCCCCCCC/C=C/CCCCCCCC(=O)OCCN(CC)CCCC(C)Nc1ccnc2cc(Cl)ccc12 (stereo not shown) [Hydroxychloroquine-elaidate, 7-chloro-4-[4-[ethyl(2-elaidoyloxyethyl)amino]1-methylbutylamino]-quinoline]",ED50,[6],0.71 mg/kg
same,ED90 value,[6],0.93 mg/kg
same,ED99 value,[6],1.24 mg/kg
same,times more effective than hydroxychloroquine itself,"[6]; on a molar basis, 4 day test",2.5- 3 times
"CCCCCCCC/C=C\CCCCCCCCOc1ccc2cc([C@H](C)C(=O)O)ccc2c1 (stereo in doubt) [naproxen oleyl ether, S(+)-2-(6-[cis-9′-octadecenoxy]-2-naphthyl)-propionic acid]",reduction of granuloma tissue dry weight versus liposome-treated control,[7]; 2 weeks,16%
same,reduction of fluid mass of the granulomas versus liposome-treated control,[7]; 2 weeks,9%
"CCCCCCCC/C=C/CCCCCCCC(=O)NC(Cc1ccc(N(CCCl)CCCl)cc1)C(=O)O (stereo not shown) [melphalan-elaidic amide, Elaidic acid melphalan amide]",Derivative LD50,[1],180 mg/kg
same,"ED90, dose required to reduce tumour mass by 90% compared to controls",ADJ/PC6 plasmacytoma,ED90 was achieved
same,"ED90, dose required to reduce tumour mass by 90% compared to controls",[2]; [9],60 mg/kg
same,"ED90, dose required to reduce tumour mass by 90% compared to controls","[2]; i.p. single dose day 20, tumours weighed day 30, listed as melphalan-elaidic acid amide",ED90 was achieved
"CCCCCCCC/C=C\CCCCCCCCNC(=O)[C@@H](C)c1ccc2cc(OC)ccc2c1 (stereo in doubt) [naproxen oleyl amide, S(+)-2-(6-methoxy-2-naphthyl)propionic acid-(cis-9′-octadecenyl)-amide]","glycosaminoglycan content of implanted cartilage, less than liposome-treated control group",[7],11%
same,"hydroxyproline content of implanted cartilage, less than liposome-treated control group",[7],3%
same,reduction of granuloma tissue dry weight versus liposome-treated control,[7]; 2 weeks,38%
same,reduction of fluid mass of the granulomas versus liposome-treated control,[7]; 2 weeks,22%
"CCCCCCCC/C=C/CCCCCCCC(=O)OCC(=O)[C@@]1(O)CC[C@H]2[C@@H]3CCC4=CC(=O)C=C[C@]4(C)[C@H]3[C@@H](O)C[C@@]21C [prednisolone-elaidate, 11β, 17α, 21-trihydroxypregna-1,4-diene-3,20-dione-21-elaidate]","chemiluminescence of stimulated peritoneal cells, comparison of 7 fatty acid esters of prednisolone","[4]; i.p. 10 mg/ml, 48 hours post treatment, FIG. 6",the best
same,activity (chemoluminescence) of zymosan stimulated peritoneal cells,[4]; i.p. 4 ml at 10 mg/ml,reduced compared to control for up to 48 hours post treatment
same,airway responsiveness to 5-hydroxytryptamine (PC50RL),"[5]; rat, in vivo",affected to a surprisingly high extent
same,number of inflammatory cells in the bronchoalveolar fluid,"[5]; rat, in vivo",Neither prednisolone nor the derivative did influence
"CCCCCCCC/C=C\CCCCCCCCOC(=O)CCCc1ccc(N(CCCl)CCCl)cc1 [chlorambucil-oleylester, Chlorambucil-oleyl ester]",Derivative LD50,[1],>1600 mg/kg
"COc1ccc2cc([C@H](C)C(=O)O)ccc2c1 [naproxen, S(+)-2-(6-methoxy-2-naphthyl)propionic acid, reference compound]",implants lost through aggressive behaviour of the animals,"[7]; 2 weeks, n=10",4 out of 10
same,"glycosaminoglycan content of implanted cartilage, less than liposome-treated control group",[7],16%
same,"hydroxyproline content of implanted cartilage, less than liposome-treated control group",[7],12%
same,reduction of granuloma tissue dry weight versus liposome-treated control,[7]; 2 weeks,no effect
same,reduction of fluid mass of the granulomas versus liposome-treated control,[7]; 2 weeks,12%
Elaidic acid daunorubicin amide [Daunorubicine elaidic amide],fluorescence due to uptake in resistant and non-resistant cells,[3],more or less equal in the two cell types
"CCCCCCCCC=CCCCCCCCC(=O)NC1CC(OC2CC(O)(C(=O)CO)Cc3c(O)c4c(c(O)c32)C(=O)c2c(OC)cccc2C4=O)OC(C)C1O (stereo not shown) [Doxorubicine-elaidic-amide, Elaidic acid doxorubicin amide]",cellular accumulation (concentration) in COR-L23/R compared with COR-L23/P,[3],approximately the same
same,IC50,[8],> 50 µM
"CCCCCCCC/C=C\CCCCCCCCOC(=O)[C@@H](C)c1ccc2cc(OC)ccc2c1 (stereo in doubt) [naproxen oleyl ester, S(+)-2-(6-methoxy-2-naphthyl)propionic acid-cis-9′-octadecenyl-ester]","glycosaminoglycan content of implanted cartilage, less than liposome-treated control group",[7],12%
same,"hydroxyproline content of implanted cartilage, less than liposome-treated control group",[7],8%
same,reduction of granuloma tissue dry weight versus liposome-treated control,[7]; 2 weeks,12%
same,reduction of fluid mass of the granulomas versus liposome-treated control,[7]; 2 weeks,14%
